In ChEMBL document CHEMBL1153545 (Antimicrob Agents Chemother, 2007):
In brackets after ≈: the same amount, converted by molar mass. Blank lines part the entries; values can stand above or below the compound they belong to. Activity calls are given as the source filed them. No cut-off for these calls is given here.

What was measured:
Streptococcus pneumoniae [1] = test: Antimicrobial activity against Streptococcus pneumoniae Spn-058 infected in one-compartment pharmacodynamic system assessed as prevention of regrowth administered ciprofloxacin at simulated oral dose regimen of 750 mg in human every 12 hrs measured on day 10; format: functional, organism-based
Streptococcus pneumoniae [2] = test: Inhibition of efflux pump in Streptococcus pneumoniae Spn-058 assessed as change in levofloxacin MIC at 20 ug/ml by broth macrodilution method
Streptococcus pneumoniae [3] = test: Inhibition of efflux pump in Streptococcus pneumoniae Spn-058 infected in one-compartment pharmacodynamic system assessed as repid killing administered levofloxacin at simulated oral dose regimen of 750 mg in human every 12 hrs measured on day 6
Streptococcus pneumoniae [4] = test: Inhibition of efflux pump in Streptococcus pneumoniae Spn-RC2 assessed as ethidium bromide uptake at 20 ug/ml
Streptococcus pneumoniae [5] = test: Antimicrobial activity against Streptococcus pneumoniae Spn-RC2 infected in one-compartment pharmacodynamic system assessed as regrowth of bacteria administered at simulated at 750 mg dosage regimen every 12 hrs measured on day 8; format: functional, organism-based
Streptococcus pneumoniae [6] = test: Inhibition of efflux pump in Streptococcus pneumoniae Spn-058 assessed as reduction in ciprofloxacin MIC by broth microdilution method
Streptococcus pneumoniae [7] = test: Inhibition of efflux pump in Streptococcus pneumoniae Spn-058 assessed as change in ciprofloxacin MIC by agar dilution method
Streptococcus pneumoniae [8] = test: Inhibition of efflux pump in Streptococcus pneumoniae Spn-058 assessed as reduction in ciprofloxacin MIC by agar dilution method
Streptococcus pneumoniae [9] = test: Inhibition of ciprofloxacin-induced efflux pump expression in Streptococcus pneumoniae Spn-058 after 5 hrs by ethidium bromide uptake assay
Streptococcus pneumoniae [10] = test: Inhibition of efflux pump in Streptococcus pneumoniae Spn-058 infected in one-compartment pharmacodynamic system assessed as repid killing administered levofloxacin at simulated oral dose regimen of 750 mg in human every 24 hrs measured on day 10
Streptococcus pneumoniae [11] = test: Inhibition of efflux pump in Streptococcus pneumoniae Spn-058 harboring mutation in parC and […] gene assessed as decrease in ciprofloxacin MIC
Streptococcus pneumoniae [12] = test: Inhibition of efflux pump in Streptococcus pneumoniae Spn-RC2 assessed as change in ciprofloxacin MIC by agar dilution method
Streptococcus pneumoniae [13] = test: Induction of efflux pump expression in Streptococcus pneumoniae Spn-RC2 after 5 hrs by ethidium bromide uptake assay
Streptococcus pneumoniae [14] = test: Inhibition of efflux pump in Streptococcus pneumoniae Spn-058 assessed as change in levofloxacin MIC by agar dilution method
Streptococcus pneumoniae [15] = test: Inhibition of efflux pump in Streptococcus pneumoniae Spn-058 assessed as change in ciprofloxacin MIC at 20 ug/ml by broth macrodilution method
Streptococcus pneumoniae [16] = test: Inhibition of efflux pump in Streptococcus pneumoniae Spn-RC2 assessed as reduction in levofloxacin MIC by agar microdilution method
Streptococcus pneumoniae [17] = test: Inhibition of efflux pump in Streptococcus pneumoniae Spn-058 assessed as reduction in levofloxacin MIC by broth microdilution method
Streptococcus pneumoniae [18] = test: Inhibition of efflux pump in Streptococcus pneumoniae Spn-RC2 assessed as reduction in ciprofloxacin MIC by agar microdilution method
Streptococcus pneumoniae [19] = test: Inhibition of efflux pump in Streptococcus pneumoniae Spn-058 assessed as reduction in levofloxacin MIC by agar dilution method
Streptococcus pneumoniae [20] = test: Inhibition of efflux pump in ciprofloxacin pretreated Streptococcus pneumoniae Spn-RC2 at 20 ug/ml by ethidium bromide uptake assay
Streptococcus pneumoniae [21] = test: Inhibition of efflux pump in Streptococcus pneumoniae Spn-058 with harboring Ser79Tyr mutation in parC gene assessed as decrease in ciprofloxacin MIC
Streptococcus pneumoniae [22] = test: Inhibition of efflux pump in Streptococcus pneumoniae Spn-058 assessed as ethidium bromide uptake at 20 ug/ml
Streptococcus pneumoniae [23] = test: Inhibition of efflux pump in Streptococcus pneumoniae Spn-RC2 assessed as reduction in ciprofloxacin MIC at 20 ug/ml by broth microdilution method
Streptococcus pneumoniae [24] = test: Antimicrobial activity against Streptococcus pneumoniae Spn-058 at 5.5 to 8 log10 CFU/ml bacterial density measured within 24 hrs; format: functional, organism-based
Streptococcus pneumoniae [25] = test: Inhibition of efflux pump in Streptococcus pneumoniae Spn-058 with harboring mutation in parC gene assessed as decrease in levofloxacin MIC
Streptococcus pneumoniae [26] = test: Inhibition of efflux pump in Streptococcus pneumoniae Spn-058 infected in one-compartment pharmacodynamic system assessed as repid killing administered levofloxacin at simulated oral dose regimen of 500 mg in human measured on day 6
Streptococcus pneumoniae [27] = test: Inhibition of efflux pump in Streptococcus pneumoniae Spn-RC2 assessed as reduction in levofloxacin at 20 ug/ml MIC by broth microdilution method
Streptococcus pneumoniae [28] = test: Antimicrobial activity against Streptococcus pneumoniae Spn-RC2 infected in one-compartment pharmacodynamic system assessed as decrease in bacterial density administered at simulated at 500 mg QD dosage regimen for 10 days measured after 24 hrs by quantitative culture assay; format: functional, organism-based
Streptococcus pneumoniae [29] = test: Induction of efflux pump expression in Streptococcus pneumoniae Spn-058 after 5 hrs by ethidium bromide uptake assay
Streptococcus pneumoniae [30] = test: Inhibition of efflux pump in Streptococcus pneumoniae Spn-RC2 assessed as change in levofloxacin MIC by agar dilution method
Streptococcus pneumoniae [31] = test: Antimicrobial activity against Streptococcus pneumoniae Spn-058 assessed as bacterial load; format: functional, organism-based
Streptococcus pneumoniae [32] = test: Induction of efflux pump expression in Streptococcus pneumoniae Spn-058 harboring mutation in gyrA gene at 20 ug/ml
[33] = Stability assessed as degradation half life; format: physicochemical
Streptococcus pneumoniae [34] = test: Antimicrobial activity against Streptococcus pneumoniae Spn-058 infected in one-compartment pharmacodynamic system assessed as regrowth of bacteria administered at simulated at 500 mg QD dosage regimen measured on day 6; format: functional, organism-based
Streptococcus pneumoniae [35] = test: Antimicrobial activity against Streptococcus pneumoniae Spn-058 infected in one-compartment pharmacodynamic system assessed as reduction in bacterial density administered at simulated at 500 mg QD dosage regimen measured on day 1; format: functional, organism-based
[36] = Half life in one-compartment pharmacodynamic system administered at simulated oral dose regimen of 500 mg in human for 10 days; format: ADME, organism-based
Streptococcus pneumoniae [37] = test: Antimicrobial activity against Streptococcus pneumoniae Spn-058 infected in one-compartment pharmacodynamic system assessed as decrease in bacterial population administered at simulated at 750 mg dosage regimen every 12 hrs for 10 days by quantitative culture assay; format: functional, organism-based
Streptococcus pneumoniae [38] = test: Antimicrobial activity against Streptococcus pneumoniae Spn-058 by broth macrodilution technique in presence of 5% lysed horse blood; format: functional
Streptococcus pneumoniae [39] = test: Antimicrobial activity against Streptococcus pneumoniae Spn-RC2 infected in one-compartment pharmacodynamic system assessed as decrease in bacterial population administered at simulated oral dose regimen of 500 mg in human for 10 days by quantitative culture assay; format: functional, organism-based
[40] = Free AUC (0 to 24 hrs) in one-compartment pharmacodynamic system administered at simulated oral dose regimen of 500 mg in human for 10 days; format: ADME
Streptococcus pneumoniae [41] = test: Antimicrobial activity against Streptococcus pneumoniae Spn-RC2 infected in one-compartment pharmacodynamic system assessed as regrowth of bacteria administered at simulated at 750 mg dosage regimen every 12 hrs measured on day 3; format: functional, organism-based
Streptococcus pneumoniae [42] = test: Antimicrobial activity against Streptococcus pneumoniae Spn-058 infected in one-compartment pharmacodynamic system assessed as regrowth of bacteria administered at simulated oral dose regimen of 750 mg in human every 12 hrs measured on day 2; format: functional, organism-based
Streptococcus pneumoniae [43] = test: Antimicrobial activity against Streptococcus pneumoniae Spn-058 infected in one-compartment pharmacodynamic system assessed as reduction in bacterial density administered at simulated oral dose regimen of 750 mg in human every 12 hrs measured on day 1; format: functional, organism-based
Streptococcus pneumoniae [44] = test: Antimicrobial activity against Streptococcus pneumoniae Spn-RC2 by broth macrodilution technique

SMILES: COC(=O)[C@H]1[C@H]2C[C@@H]3c4[nH]c5cc(OC)ccc5c4CCN3C[C@H]2C[C@@H](OC(=O)c2cc(OC)c(OC)c(OC)c2)[C@@H]1OC
Activity (Streptococcus pneumoniae [1]): Active
Activity (Streptococcus pneumoniae [2]): inactive
Activity (Streptococcus pneumoniae [3]): Active
Activity (Streptococcus pneumoniae [4]): Active
Activity (Streptococcus pneumoniae [5]): inactive
Activity (Streptococcus pneumoniae [6]): Active
Activity (Streptococcus pneumoniae [7]): Active
Activity (Streptococcus pneumoniae [8]): Active
Activity (Streptococcus pneumoniae [9]): Active
Activity (Streptococcus pneumoniae [10]): Active
Activity (Streptococcus pneumoniae [11]): Active
Activity (Streptococcus pneumoniae [12]): Active
Activity (Streptococcus pneumoniae [13]): Active
Activity (Streptococcus pneumoniae [14]): Active
Activity (Streptococcus pneumoniae [15]): inactive
Activity (Streptococcus pneumoniae [16]): Active
Activity (Streptococcus pneumoniae [17]): Active
Activity (Streptococcus pneumoniae [18]): Active
Activity (Streptococcus pneumoniae [19]): Active
Activity (Streptococcus pneumoniae [20]): Active
Activity (Streptococcus pneumoniae [21]): Active
Activity (Streptococcus pneumoniae [22]): Active
Activity (Streptococcus pneumoniae [23]): Active
Activity (Streptococcus pneumoniae [24]): Active
Activity (Streptococcus pneumoniae [25]): Active
Activity (Streptococcus pneumoniae [26]): Active
Activity (Streptococcus pneumoniae [27]): Active
Activity (Streptococcus pneumoniae [28]): inactive
Activity (Streptococcus pneumoniae [29]): Active
Activity (Streptococcus pneumoniae [30]): Active
Activity (Streptococcus pneumoniae [31]): Active
Activity (Streptococcus pneumoniae [32]): Active

half-life [33]: 20 h
half-life [36]: 7 h
fAUC [40]: 36000 ng·h/mL
SMILES: C[C@H]1COc2c(N3CCN(C)CC3)c(F)cc3c(=O)c(C(=O)O)cn1c23.C[C@H]1COc2c(N3CCN(C)CC3)c(F)cc3c(=O)c(C(=O)O)cn1c23.O [LEVOFLOXACIN]
Activity (Streptococcus pneumoniae [34]): inactive
Activity (Streptococcus pneumoniae [35]): Active
Activity (Streptococcus pneumoniae [37]): Active
MBC (Streptococcus pneumoniae [38]): 1 µg/mL
Activity (Streptococcus pneumoniae [39]): Active
Activity (Streptococcus pneumoniae [41]): Active

SMILES: O=C(O)c1cn(C2CC2)c2cc(N3CCNCC3)c(F)cc2c1=O [CIPROFLOXACIN]
Activity (Streptococcus pneumoniae [1]): Active
Activity (Streptococcus pneumoniae [42]): inactive
Activity (Streptococcus pneumoniae [43]): Active
MBC (Streptococcus pneumoniae [38]): 1 µg/mL
MIC (Streptococcus pneumoniae [38]): 1 µg/mL
MIC (Streptococcus pneumoniae [44]): 2 µg/mL (≈ 6.04 µM)
Activity (Streptococcus pneumoniae [41]): Active
